The record followed here is patent US20160213788A1, “ACTIVE TARGETING ANTITUMOR DRUG AND PREPARATION METHOD THEREFOR” (NINGBO INSTITUTE OF MATERIALS TECHNOLOGY & ENGINEERING, …, priority 2013, published 2016).

The test system of test [1] is human breast cancer MCF-7 cells. The test can be described thus: MTT test (cell toxicity test). The format is cell-based. As to conditions: for survival rate of cell (%): MCF-7, 4 h exposure then 44 h culture. As to the method:
(§1) (1) MTT test (cell toxicity test)
(§2) 1. formulating a single cell suspension with a medium containing 10% fetal calf serum, and then seeding the suspension into 96-well plates in 1.0×10^5 cells per well. The volume of each well was 150 μL.
(§3) 2. placing the plates into a cell incubator of 37° C. and culturing for 24 h.
(§4) 3. absorbing and discarding the supernatant of the medium in the well, and adding […], fresh medium containing TXT or […], solution containing composition [D-Arg^25]-NPY-ANP-TXT with same concentration of TXT.
(§5) 4. placing into a cell incubator of 37° C. and culturing for 4 h, absorbing and discarding the supernatant of the medium in the well, and then replacing with fresh medium contain no medication or nanoparticle composition, and continuing to culture for 44 h.
(§6) 5. adding 10 μL MTT solution (5 mg/ml, in PBS, pH=7.4) into each well, placing the plates into a cell incubator of 37° C. and continuing to culture for 4 h, terminating the culture, and then absorbing and discarding the supernatant of the medium in the well.
(§7) 6. adding 150 μL DMSO into each well, oscillating for 10 min, so that the crystal was fully thawed.
(§8) 7. selecting 550 nm wavelength, and measuring the light absorbance for each well with enzyme-linked immunosorbent monitor and recording the results.
(§9) The cells used in cell experiments comprised human breast cancer MCF-7 cells, human endometrial tumors HEC-1B-Y5 cells (Purchased from American Type Culture Collection (ATCC) and Sciencell company(USA))
On the technique in general: Tetrazolium assays rely on reduction of a dye to a coloured formazan, in cell work by metabolically active cells.

Test [2] has as its system human endometrial tumors HEC-1B-Y5 cells. Description: MTT test (cell toxicity test). The format is cell-based. The following applies: for survival rate of cell (%): HEC-1B-Y5, 4 h exposure then 44 h culture. As to the method:
as §1, §2, §3, §4, §5, §6, §7, §8, §9

Regarding `CC(=O)O[C@@]12CO[C@@H]1C[C@H](O)[C@@]1(C)C(=O)[C@H](O)C3=C(C)[C@@H](OC(=O)[C@H](O)[C@@H](NC(=O)OC(C)(C)C)c4ccccc4)C[C@@](O)([C@@H](OC(=O)c4ccccc4)[C@H]21)C3(C)C` [TXT, docetaxel], the “survival rate of cell (%)” value in test [1] (CTXT 0.5 μg/mL) worked out at 90%; in test [1] (CTXT 1.0 μg/mL) it was 80%; in test [1] (CTXT 2.0 μg/mL), 50%; in test [1] (CTXT 5.0 μg/mL) it was 20%; in test [1] (CTXT 10.0 μg/mL), 20%; in test [2] (CTXT 0.5 μg/mL), 91%. For the same compound, the “survival rate of cell (%)” value was found to be 79% in test [2] (CTXT 1.0 μg/mL), 55% in test [2] (CTXT 2.0 μg/mL), 40% in test [2] (CTXT 5.0 μg/mL) and 30% in test [2] (CTXT 10.0 μg/mL). Further, the “killing effect (in words)” value in test [1] (MCF-7 cells) and in test [2] (HEC-1B-Y5 cells) was “excellent killing effect” each time.
